The subject of one test is SJSA-1. Briefly: Cytotoxicity against human SJSA1 cells after 72 hrs by SRB assay. The test is classed as functional, cell-based. Conditions: SJSA-1, 72 h. A general note: The SRB assay estimates cell density from bound dye.
Another test relates to SW-620. Briefly: Cytotoxicity against human SW620 cells after 72 hrs by SRB assay. Format: functional, cell-based. Conditions: SW-620, 72 h.
For test [1], the system named is HCT-116. Briefly: Cytotoxicity against human HCT116 cells after 72 hrs by SRB assay relative to Nutlin-3. Format: functional.
The subject of test [2] is HCT-116. The experiment in a line: Cytotoxicity against human HCT116 cells after 72 hrs by SRB assay. Format: functional, cell-based. Conditions: HCT-116, 72 h.
Test [3] concerns the target Tumour suppressor p53/oncoprotein Mdm2 (Homo sapiens, UniProt Q00987). The experiment in a line: Inhibition of p53-MDM2 (1 to 118 residues) interaction (unknown origin) expressed in Escherichia coli BL-21 (DE3) assessed as inhibition of MDM2 binding by fluorescence polarization competitive binding assay. A general note: In fluorescence polarisation assays a small probe gives low polarisation when free and higher when bound to something large.

The subject of the next test is A549. Briefly: Cytotoxicity against human A549 cells after 72 hrs by SRB assay. Conditions: A549, 72 h. The test is classed as functional, cell-based.
Another test has as its system PC-3. Briefly: Cytotoxicity against human PC3 cells after 72 hrs by SRB assay. Format: functional, cell-based. Conditions: PC-3, 72 h.

As a reminder, the IC50 is the concentration that gives 50% inhibition.

A value given as a limit tells only on which side of the number the result lay.

Chain of Tumour suppressor p53/oncoprotein Mdm2 (P04637 whole entry, the tested form may be a part): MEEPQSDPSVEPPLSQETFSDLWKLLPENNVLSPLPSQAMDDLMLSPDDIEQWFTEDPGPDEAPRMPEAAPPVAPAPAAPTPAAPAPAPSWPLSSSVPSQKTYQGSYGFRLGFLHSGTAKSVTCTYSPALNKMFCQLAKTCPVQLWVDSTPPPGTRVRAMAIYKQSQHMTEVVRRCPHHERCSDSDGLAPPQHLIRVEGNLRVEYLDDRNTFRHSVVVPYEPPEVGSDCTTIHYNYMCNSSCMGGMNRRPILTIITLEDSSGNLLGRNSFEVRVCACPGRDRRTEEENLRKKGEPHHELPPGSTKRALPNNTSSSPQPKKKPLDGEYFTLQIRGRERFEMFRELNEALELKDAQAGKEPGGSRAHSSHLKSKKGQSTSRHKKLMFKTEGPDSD
Chain of Tumour suppressor p53/oncoprotein Mdm2 (Q00987 whole entry, the tested form may be a part): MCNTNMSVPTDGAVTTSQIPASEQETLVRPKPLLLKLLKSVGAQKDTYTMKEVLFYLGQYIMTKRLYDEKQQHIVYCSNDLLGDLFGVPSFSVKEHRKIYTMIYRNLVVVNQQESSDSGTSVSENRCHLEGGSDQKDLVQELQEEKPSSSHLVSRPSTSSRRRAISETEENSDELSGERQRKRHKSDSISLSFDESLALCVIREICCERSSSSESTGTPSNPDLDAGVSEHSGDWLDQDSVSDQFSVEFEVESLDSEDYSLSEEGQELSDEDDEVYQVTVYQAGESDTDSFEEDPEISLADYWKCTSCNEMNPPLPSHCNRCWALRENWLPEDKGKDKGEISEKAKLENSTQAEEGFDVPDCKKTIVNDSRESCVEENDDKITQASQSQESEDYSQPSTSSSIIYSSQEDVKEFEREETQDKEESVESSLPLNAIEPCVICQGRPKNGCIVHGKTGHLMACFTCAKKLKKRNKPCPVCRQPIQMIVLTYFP

Take `Nc1sc(-c2ccc(Cl)cc2)c(-c2ccc(Cl)cc2)c1C(=O)N1CCCC1`: the IC50 is 17.6 µM with SJSA-1, 3.87 µM in the test with SW-620, 3.63 µM with HCT-116 [2] and 2.84 µM in test [3]. For the same compound, the “Ratio IC50” value with HCT-116 [1] was determined as 1.3.
For `Nc1sc(-c2ccc(Cl)cc2)c(-c2ccc(Cl)cc2)c1C(=O)Nc1ccccc1`, the concentration for half-maximal inhibition (IC50) in the test on SJSA-1 is more than 500 µM; in the test on SW-620 it was 39.7 µM; in the test on HCT-116 [2], 14.5 µM; in test [3] it was more than 50 µM.
With `COc1ccc(C2=NC(c3ccc(Cl)cc3)C(c3ccc(Cl)cc3)N2C(=O)N2CCNC(=O)C2)c(OC(C)C)c1` (racemic), the IC50 in the test with A549 came to 0.41 µM; in the test with SJSA-1, 1.81 µM; with SW-620 it was 0.38 µM; in the test with PC-3, 6.37 µM; in the test with HCT-116 [2], 4.63 µM.
As to `COC(=O)c1c(N)sc(-c2ccc(Cl)cc2)c1-c1ccc(Cl)cc1`, the half-maximal inhibitory concentration (IC50) worked out at 40.9 µM in the test with SJSA-1, 3.23 µM in the test on SW-620, 1.66 µM with HCT-116 [2] and 4.23 µM in test [3]. In the test with HCT-116 [1], the “Ratio IC50” value is reported as 1.3.
The like results for `Nc1sc(-c2ccc(Cl)cc2)c(-c2ccc(Cl)cc2)c1C(=O)NC1CC1` were, in that order, 31.9 µM, 1.74 µM, 0.24 µM, 2.08 µM and 1.3.
In the same order, the values of `Nc1sc(-c2ccc(Cl)cc2)c(-c2ccc(Cl)cc2)c1C(=O)NC1CCCCC1` are 102 µM, 3.07 µM, 0.59 µM, 0.9 µM and 1.3.
